“Also recorded” adds a separate entry of the source. *1 amine or outer side, *2 acyl side, *3 side chain or, on linkers, in order; H or OH if unused. Where a SMILES comes first, the peptide text is derived from it. Bridges are numbered along the chain shown (N, C = ends). Roman numbers before positions name the chains, in order. [ ]: non-standard residue; d: D form. Actinocin(9to1) = Cc1c2oc3c(C)ccc(C(=O)[*:1])c3nc-2c(C(=O)[*:2])c(N)c1=O; NMeV = CN[C@H](C(=O)O)C(C)C; Sar = CNCC(=O)O
Tests used:
[1] = test system: lung fibroblasts; assay: Collagen production, metabolic labeling with 14C-proline, PAGE and autoradiography; format: cell-based, human; conditions: for effect on PARC activated collagen production: LF2 lung fibroblasts, 14C-proline
Procedure: Collagen Production Assays. Production of collagen was assessed using metabolic labeling with ^14C-proline and Western blotting with anti-collagen type I antibody. For metabolic labeling of collagen, fibroblasts were plated at 2×10^5 cells/well in 6-well plates (Costar, Cambridge, Mass.), in duplicates, incubated overnight in 3 ml/well of high serum medium, and then for 24 h in low-serum medium. After that, the culture medium was replaced with 1 ml/well of fresh low serum medium with or without added test substances and containing ^14C-proline at 1 μCi/ml (Amersham Pharmacia Biotech). After incubation for the desired periods of time, the cell culture supernatants were collected, rapidly frozen in liquid nitrogen and freeze-dried at −70° C. The pellets were dissolved in 100 μl of reducing Laemmli buffer per 1 ml of the cell culture supernatant, and the samples were electrophoretically separated in 7.5% acrylamide gels. Alternatively, samples were concentrated 10-fold by filter centrifugation on 30K Ultrafree-MC filters (Millipore, Bedford, Mass.). Fluorographic images were developed using EN[3H]ANCE autoradiography enhancer (NEN, Boston, Mass.). Gel images were acquired using Storm densitometer (Molecular Dynamics, Sunnyvale, Calif.), and the densities of the bands were analyzed with ImageQuant software (Molecular Dynamics). Dependence of collagen production by fibroblast cultures on the dose of PARC and duration of stimulation were evaluated using one-way ANOVA with post hoc testing.
The identity of collagen bands was confirmed by sensitivity to pepsin and collagenase (both from Sigma) digestion. For pepsin digestion, 2 μl of 1 Macetic acid were added to 40 μl of concentrated fibroblast culture supernatant, followed by 1 μl of pepsin stock, to achieve final concentration of pepsin as indicated in the text. After 15 min of digestion at room temperature, reaction was stopped with 4 μl of 1 M Tris base and 40 μl of reducing Laemmli buffer. For collagenase digestion, 1 μl of 4 U/ml bacterial collagenase and 1 μl of protease inhibitor cocktail (Sigma) were added to 40 μl of sample and digestion performed at room temperature for 30 min. The bacterial collagenase was highly purified and had minimal clostripain and neutral protease activity, as tested by the manufacturer, according to the product information sheet.
To test effects of rhPARC on collagen protein production by lung and dermal fibroblast cell lines, fibroblast cultures were incubated for 48 h with or without 30 ng/ml and 300 ng/ml rhPARC in the low-serum cell culture medium containing 14Cproline for metabolic labeling of collagen. Fibroblast culture supernatants contained two 14C-proline containing bands in gel electrophoresis under reducing conditions (FIGS. 13A and 13B). Digestion with chromatographically pure bacterial collagenase in the presence of protease inhibitors eliminated the bands completely (FIG. 13A). To confirm the identity of these bands, we conducted Western blotting experiments in reducing conditions of fibroblast culture supernatants using an anti-collagen type I antibody, that recognizes α1(I) collagen but not other collagen chains. Digestion with pepsin caused expected decrease in the apparent molecular weight of the immunoreactive collagen from ˜175 kD to ˜125 kD (FIG. 13C).

[2] = test system: fibroblasts; conditions: reported for MCP-1; cited from earlier work
[3] = target: Autocrine (active) TGF-β secreted by human primary lung fibroblast cultures (human); assay: cell-based or functional assay
[4] = test system: α2(I) collagen mRNA; assay: Real-time PCR for α2(I) collagen mRNA relative to 18S rRNA; format: cell-based, human; conditions: 10 μg/ml actinomycin D before stimulation with PARC
[5] = test system: Smad3; assay: Smad3 immunoprecipitation and phosphorylation Western blot; format: cell-based, human; conditions: fibroblasts activated with cytokine
Procedure: To determine if PARC stimulated phosphorylation of Sp1 and Smad3, these factors were immunoprecipitated from lysates of fibroblasts that had been activated with recombinant human PARC for up to 24 hours, and the levels of their phosphorylation were tested in Western blotting assays using anti-phosphoserine and anti-phospho-Smad2/3 antibodies. Equal loading was controlled by stripping the membranes and re-developing them with anti-Sp1, anti-Smad3 and anti-Smad2/3 antibodies (FIG. 17).
Preparation of fibroblast lysates, immunoprecipitation of Sp1 and Smad2/3, normalization of protein concentration in the samples with BioRad assays, electrophoretic separation, Western blotting, membrane stripping and re-development with different antibodies were performed as described in Atamas et al. (Am. J. Respir. Cell. Mol., 29:743-749 (2003); J. Immunol. 168: 1139-1145 (2002); and Arthritis Rheum., 42:1168-1178 (1999)), which are hereby incorporated by reference. Rabbit antibodies for total Smad2/3 and Sp1 were from Upstate (Waltham, Masss.). Antiphospho-Smad2/3 antibody and goat antibody for total Smad3 were from Santa Cruz Biotechnology (Santa Cruz, Calif.), as was anti-gp130 antibody used to confirm equal loading of the samples. Antiphosphoserine antibody was from Biomol (Plymouth Meeting, Pa.).

[6] = test system: ERK1/2; assay: Immunoblotting for phosphorylation of ERK1/2; format: cell-based, human; conditions: LF1, rhPARC 15 min, toxin 10 ng/ml
[7] = test system: lung fibroblasts; assay: Western blotting of fibroblast culture supernatants for collagen type I / α1(I); format: cell-based, human; conditions: lung fibroblast cultures, 48 h; for effect on PARC-stimulated collagen production: inhibitor plus PARC; for effect on TGF-β-stimulated collagen production: inhibitor plus TGF-β
Procedure: Collagen Production Assays. Collagen was quantified as described elsewhere (Atamas S P et al.). Briefly, fibroblasts were cultured with β-aminopropionitrile (Sigma) to prevent collagen cross-linking, and Western blotting assays for collagen were performed using rabbit affinity purified anti-collagen type I antibody (Rockland, Gilbertsville, Pa.). Before electrophoresis, samples were reduced and denatured by boiling in Laemmli buffer containing β-mercaptoethanol. Human purified collagen type I (Southern Biotech, Birmingham, Ala.) was used as a positive control in these assays. The identity of collagen bands was confirmed by sensitivity to pepsin and collagenase (both from Sigma) digestion, as described (Atamas S P et al.). Under these conditions, pro-collagen appears as a single or double band around 175 kDa (Gaidarova S et al., Stefanovic B et al.). Images were collected using a Storm densitometer and band densities analyzed with ImageQuant software (Molecular Dynamics, Sunnyvale, Calif.).
Western blotting assays for collagen were performed using rabbit affinity purified anti-collagen type I antibody (Rockland, Gilbertsville, Pa.). Before electrophoresis, samples were reduced and denatured by boiling in Laemmli buffer containing β-mercaptoethanol. Human purified collagen type I (Southern Biotech, Birmingham, Ala.) was used as a positive control in these assays.
Collagen was quantified by Western blotting and the identity of collagen bands was confirmed by sensitivity to pepsin and collagenase digestion as described elsewhere in Atamas et al. (Am. J. Respir. Cell. Mol., 29:743-749 (2003)). In these assays, pro-collagen appears as a single or double band with a molecular weight of approximately 175 kDa (4,27,28).

[8] = listed as Recombinant latency-associated peptide

C[S+]([O-])c1ccc(-c2nc(-c3ccncc3)c(-c3ccc(F)cc3)[nH]2)cc1 (stereo not drawn) [SB203580, reference compound]
effect on PARC activated collagen production [1]: had no effect

MCP-1: CC chemokine known to induce collagen production in pulmonary fibroblasts through autocrine TGF-β
concentration stimulating detectable collagen production [2]: 100 to 400 ng/mL

Neutralizing anti-pan-TGF-β antibody, monoclonal mouse IgG1 clone 1D11 (R&D Systems)
mink lung epithelial cell proliferation (thymidine incorporation); antibody concentration that abrogates the inhibition [3]: 1 µg/mL

Cc1c2oc3c(C)ccc(C(=O)N[C@@H]4C(=O)N[C@H](C(C)C)C(=O)N5CCC[C@H]5C(=O)N(C)CC(=O)N(C)[C@@H](C(C)C)C(=O)O[C@@H]4C)c3nc-2c(C(=O)N[C@@H]2C(=O)N[C@H](C(C)C)C(=O)N3CCC[C@H]3C(=O)N(C)CC(=O)N(C)[C@@H](C(C)C)C(=O)O[C@@H]2C)c(N)c1=O [actinomycin D, Actinomycin D, reference compound] (I: T[dV]P[Sar][NMeV] / II: T[dV]P[Sar][NMeV]; ester I:1-I:C, II:1-II:C; linker I:N-II:N via Actinocin(9to1))
effect on PARC-induced increase in collagen mRNA [4]: completely abrogated the increase in collagen mRNA

rhIL-4: recombinant human interleukin 4 purchased from R&D Systems
combined density of procollagen bands, fold higher than non-stimulated control ([1]; LF2 cells, 10 ng/ml rhIL-4, 48 h): 2.9 fold

rhTGF-β1: Recombinant human TGF-β1 from R&D Systems, positive control for fibroblast stimulation
phosphorylation of immunoprecipitated Smad3 [5]: increased phosphorylation of Smad3

Bordetella PT [reference compound]
effect on PARC-stimulated ERK phosphorylation [6]: inhibited phosphorylation of ERK; also recorded: block PARC-stimulated ERK phosphorylation

COc1cccc(-c2cc(=O)c3ccccc3o2)c1N [PD98059, reference compound]
effect on PARC activated collagen production [1]: inhibited PARC activated collagen production

Aprotinin [reference compound]
effect on PARC-stimulated collagen production [7]: failed to inhibit the effect of PARC
effect on TGF-β-stimulated collagen production [7]: had no effect on collagen production

rhLAP: Latency-associated peptide (R&D Systems) used for TGF-β neutralization
effect on PARC-stimulated collagen production [7, 8]: failed to block the effect of PARC
effect on TGF-β-stimulated collagen production [7]: inhibited stimulating effect of TGF-β
effect on TGF-β-stimulated collagen production ([7]; listed as Recombinant human LAP): inhibited stimulating effect of TGF-β
effect on TGF-β-stimulated collagen production [7, 8]: inhibited the effect of TGF-β

NC(=O)c1ccc(-c2nc(-c3ccc4c(c3)OCO4)c(-c3ccccn3)[nH]2)cc1 [SB431542, reference compound]
effect on TGF-β-stimulated collagen production [7]: blocked TGF-β-stimulated; also recorded: abrogated TGF-β-stimulated

— patent US20060009452A1, “Therapeutic targeting of PARC/CCL18 and its signaling in pulmonary fibrosis” (priority 2004, published 2006)
